The record followed here is US8552184B2, “Compounds and methods for treating disorders related to glucose metabolism” (Melior Pharmaceuticals I, Inc., priority 2008, dated 2013).

Test [1] relates to CD1 male mice. Nature of the test: Oral glucose tolerance test (mouse model of hyperglycemia / type II diabetes). The test is classed as in vivo. The settings on record: for Effect on blood glucose levels (in words): mouse model of hyperglycemia, high glucose load. The source says:
Type II diabetes is characterized by high blood glucose levels in the presence of normal amounts of insulin. Animal models of type II diabetes involve administering high levels of glucose and measuring blood glucose levels and the ability of the experimental animal to maintain glucose homeostasis over time. Several pharmacological structural classes can effectively regulate this hyperglycemic response including sulfonylureas, thiazoladinediones (PPARγ agonists; glitazones) or metformin (glucophage). These drug classes are also clinically approved for use in humans. In one present study, a mouse model of hyperglycemia has been established by administering high levels of glucose to mice.
CD1 male mice (Harlan, Indianapolis, Ind.) of between 8 and 10 weeks of age were fasted 18 hours prior to the start of the study. All blood glucose levels were measured using an Accu-Check Aviva glucose monitors with Aviva glucose test strips from a blood drop derived from the mouse tail. Prior to any treatment, baseline levels of blood glucose were measured in fasted mice. Thirty minutes after baseline measurement, Compound 101 or vehicle was administered via intravenous administration. Thirty minutes after compound administration, animals were administered an oral solution (via gavage) of glucose in distilled water. The dose of glucose was 1.5 g/Kg of body weight. Blood glucose levels were measured 15, 30, 60, 90 and 120 minutes after glucose challenge. There were 6 mice per treatment group.
Blood glucose levels were taken from treated and untreated groups at the times above and measured for concentration of glucose in milligram per deciliter of blood of sample. Average values were calculated for each time point from each group and summarized after performing statistical analysis in Table III below:
After plotting the concentration of blood glucose level over time of treated verses non-treated groups, the area under each curve was calculated to determine the glucose exposure of the treated groups of mice over time. A Student's t test with a p value of <0.001 was performed to generate a standard deviation for the average calculated glucose exposure of the group treated with Compound 101 as compared to the group treated with vehicle alone.

Test [2] has as its system CD1 male mice. Described as above. It is filed as in vivo. The settings on record: area under blood glucose vs time curve; 7 mg/kg intravenous; oral glucose 1.5 g/Kg; p < 0.01 vs vehicle.

“Also recorded” adds a separate entry of the source.

With `Cc1cccc(Oc2c[nH]c(=O)[nH]c2=O)c1` [Compound 101, 5-(m-tolyloxy)pyrimidine-2,4(1H,3H)-dione], the “Blood glucose levels, AVG ± SEM” value was determined as 62.0 ± 13.1 mg/dL in the test with CD1 male mice [1] (0 min, baseline in fasted mice before treatment, Compound 101 group (7 mg/kg intravenous given at 30 min)); 119.6 ± 36.0 mg/dL in the test with CD1 male mice [1] (75 minutes (15 min after oral glucose 1.5 g/Kg), 7 mg/kg intravenous, 30 min before glucose); 156.4 ± 55.9 mg/dL in the test with CD1 male mice [1] (90 minutes (30 min after oral glucose 1.5 g/Kg), 7 mg/kg intravenous, 30 min before glucose); 152.2 ± 33.9 mg/dL in the test with CD1 male mice [1] (120 minutes (60 min after oral glucose 1.5 g/Kg), 7 mg/kg intravenous, 30 min before glucose); 107.8 ± 34.1 mg/dL in the test on CD1 male mice [1] (150 minutes (90 min after oral glucose 1.5 g/Kg), 7 mg/kg intravenous, 30 min before glucose); 102.6 ± 39.9 mg/dL in the test on CD1 male mice [1] (180 minutes (120 min after oral glucose 1.5 g/Kg), 7 mg/kg intravenous, 30 min before glucose). The “Effect on blood glucose levels (in words)” value in the test on CD1 male mice [1] is reported as “effective in reducing blood glucose levels; also recorded: effectively controls glucose levels in vivo”. Further, the “Glucose Exposure (Area Under the Curve; AUC), blood glucose levels AUC” value in the test on CD1 male mice [2] was 8424.7 ± 1922.5 mg·min/dL.

As for `CN(C)C(=N)N=C(N)N` [metformin, reference compound], in the test on CD1 male mice [1], the “Effect on blood glucose levels (in words)” value is given as “can effectively reduce the blood glucose load”.
